# According to patent US8258309B2, “Azapeptide derivatives” (priority 2007, dated 2012):
# Assays:
# HIV-1RF = assay: HIV anti-viral activity in CEM-SS cells infected with HIV-1 (XTT); format: cell-based
# Experimental: The HIV antiviral activity of compound of the present invention was tested in CEM-SS cells infected with HIV-1. CEM-SS cells were passaged in T-75 flasks in RPMI 1640 medium supplemented with 10% heat inactivated fetal bovine serum, 2 mmol/L L-glutamine, 100 U/mL penicillin and 100 flg/mL streptomycin prior to use in the antiviral assay. On the day preceding the assay, the cells were split 1:2 to assure they were in an exponential growth phase at the time of infection. Total cell and viability quantification was performed using a hemocytometer and Trypan Blue dye exclusion. Cell viability was greater than 95% for the cells to be utilized in the assay. The cells were resuspended at 5×10^4 cells per mL in tissue culture medium and added to the drug-containing microtiter plates in a volume of 50 μL.
# The virus used for the assay was the lymphocyte-tropic virus strain HIV-IRF. The virus was obtained from the NIH AIDS Research and Reference Reagent Program and stock virus pools were produced in CEM-SS cells. A pre-titered aliquot of virus was removed from the freezer (−80° C.) and allowed to thaw slowly to room temperature in a biological safety cabinet. Virus was resuspended and diluted into tissue culture medium such that the amount of virus added to each well in a volume of 50 μL was the amount determined to yield 85 to 95% cell killing at 6 days post-infection.
# Each plate contains cell control wells (cells only), virus control wells (cells plus virus), compound toxicity wells (cells plus compound only), compound colorimetric control wells (compound only) as well as experimental wells (compound plus cells plus virus). Samples were tested in triplicate with eleven half-log dilutions per compound starting at 0.1 μM of compound. Compounds 104, 120 and 122 were tested, as was atazanavir and AZT. […]
# Following incubation at 37° C. in a 5% CO2 incubator, the test plates were stained with the tetrazolium dye XTT (2,3-bis(2-methoxy-4-nitro-5sulfophenyl)-5-[(phenylamino)carbonyl]-2H-tetrazolium hydroxide). XTT-tetrazolium was metabolized by the mitochondrial enzymes of metabolically active cells to a soluble formazan product, allowing rapid quantitative analysis of the inhibition of HIV induced cell killing by anti-HIV test substances. XTT solution was prepared daily as a stock of 1 mg/mL in RPMI 1640. Phenazine methosulfate (PMS) solution was prepared at 0.15 mg/mL in PBS and stored in the dark at −20° C. XTT/PMS stock was prepared immediately before use by adding 40 μL of PMS per mL of XTT solution. Fifty microliters of XTT/PMS was added to each well of the plate and the plate was reincubated for 4 hours at 37° C. Plates were sealed with adhesive plate sealers and shaken gently or inverted several times to mix the soluble formazan product and the plate was read spectrophotometrically at 450/650 nm with a Molecular Devices Vmax plate reader.
# Raw data was collected from the Softmax Pro 4.6 software and imported into a Microsoft Excel 2003 spreadsheet for analysis by linear curve fit calculations.
# in vivo = conditions: chimpanzee, po
# Experimental: Four chimps (two male and two female) were used in this study and were fasted overnight prior to administration of the compound solution. Animals were sedated with ketamine and/or telazol prior to dosing. Intravenous dosing was achieved by IV infusion over 30 minutes.
# Approximately 4.5 mL of blood was collected into vacutainer tubes with sodium heparin as an anticoagulant at 0 (preinfusion), 15 min., 29.5 min (immediately before the end of the infusion), and then at 6, 15, 30, and 45 minutes, and 1, 2, 4, 6, 8, 10, 12, 24 hours after the infusion is stopped. A similar procedure was used to collect blood after oral dosing with samples taken at 0 (predose), 15, and 30 minutes, and at 1, 1.5, 2, 4, 6, 8, 10, 12, 24 hours postdose. Following sample collection, the vacutainer tubes were rocked by hand several times to insure adequate mixing. Blood samples were placed immediately on wet ice and centrifuged within 1 hour from time of collection. Following centrifugation, the resulting plasma was stored frozen at −70° C. until analysis. The results are summarized in FIGS. 4 and 5 and tables 6 and 7.
# Run B: Same as Run A, except the dose was 150 mg orally of each of atazanavir and compounds 114 and 120, and the vehicle was 10 percent ethanol, 40 percent polypropylglycol in 2.5 percent citric acid.
# [1] = Human immunodeficiency virus 1, CEM-SS, +0.5 mg/mL AAGP
# [2] = Human immunodeficiency virus 1, CEM-SS, +10 mg/mL HAS
# [3] = Human immunodeficiency virus 1, CEM-SS, +AAGP + HSA
# [4] = Human immunodeficiency virus 1, CEM-SS, No Serum Protein Added (cell culture medium)
EC50 (HIV-1RF; +10 mg/mL HAS),EC50 (HIV-1RF; [1]),EC50 (HIV-1RF; [2]),EC50 (HIV-1RF; [3]),EC50 (HIV-1RF; [4]),EC50 (HIV-1RF; No Serum Protein Added (cell culture medium)),concentration detected intact in urine (in vivo; 24 h),concentration at 24 h (in vivo; concentration detected intact in urine),Compound,fold less potent in the presence of HSA than in cell culture medium alone (HIV-1RF; 10 mg/mL HSA versus cell culture medium)
0.8 nM,2 nM,0.9 nM,6 nM,< 0.4 nM,0.4 nM,,,"[2H]C([2H])([2H])OC(=O)N[C@H](C(=O)N[C@@H](Cc1ccccc1)[C@@H](O)CN(Cc1ccc(-c2ccccn2)cc1)NC(=O)[C@@H](NC(=O)OC([2H])([2H])[2H])C(C([2H])([2H])[2H])(C([2H])([2H])[2H])C([2H])([2H])[2H])C(C([2H])([2H])[2H])(C([2H])([2H])[2H])C([2H])([2H])[2H] [Compound 122, 1,14-Di(methyl-d3)(3S,8S,9S,12S)-3,12-bis[(1,1-dimethylethyl)-d9]-8-hydroxy-4,11-dioxo-9-(phenylmethyl)-6-[[4-(2-pyridinyl)phenyl]methyl]-2,5,6,10,13-pentaazatetradecanedioate]",two- to greater than three-fold less potent
,4 nM,4 nM,8 nM,1 nM,,3260 ng/mL,1640 ng/mL,"COC(=O)N[C@H](C(=O)N[C@@H](Cc1ccccc1)[C@@H](O)CN(Cc1ccc(-c2ccccn2)cc1)NC(=O)[C@@H](NC(=O)OC)C(C)(C)C)C(C)(C)C [Atazanavir, atazanavir, reference compound]",
